Assay results taken from US11878984B2, “Compounds derived from Streptomyces and uses thereof” (KOREA INSTITUTE OF OCEAN SCIENCE & TECHNOLOGY, priority 2018, dated 2024).

How the values were obtained:
BV-2 microglial cells [1] = assay: Nitrite assay: LPS-stimulated NO production in BV-2 microglial cells; assay type: cell-based; settings: for NO production decreased compared to the control group: 100 μM compound
Description: (§1) BV-2 microglial cells were cultured in Dulbecco's modified Eagle medium supplemented with 5% Fetal bovine serum and 1% 100 units/mL of penicillin/streptomycin at 37° C. in a humidified 5% CO2 incubator.
For Nitrite assay, the BV-2 microglial cells seeded at a density of 1.25×10^5 cell/each well in 24-well plate were pretreated with various concentrations of compounds 1-4 for 1 h, followed by LPS (200 ng/mL) for 24 h. A range of sodium nitrite dilutions was used to obtain a standard curve with the amount of nitrite in each sample. Absorbance was determined at 540 nm using a microplate reader (Tecan Trading AG).

BV-2 microglial cells [2] = assay: MTT assay: cell viability of LPS-stimulated BV-2 microglial cells; assay type: cell-based
Description: as §1
The BV-2 microglial cells seeded at a density of 1.25×10^5 cell/each well in 24-well plate were pretreated with various concentration of compounds (12.5, 25, 50, and 100 μM for compounds 1-3 and 1, 2, 4, and 8 μM for compound 4) for 1 h, followed by LPS (200 ng/mL) for 24 h. 20 μL of MTT (2 mg/mL) solution was added to each well. After 1 h, the supernatant was sucked out and crystals of formazan were dissolved in DMSO. Optical density was measured at 550 nm using a microplate reader (Tecan Trading AG) and values were determined in comparison to control cells.

[3] = pretreated 1 h, then LPS (200 ng/mL) 24 h

| SMILES | NO production decreased compared to the control group (BV-2 microglial cells [1]; [3]) | NO production reduced compared to the control group (BV-2 microglial cells [1]; compound at low concentration of 1 to 8 μM, pretreated 1 h, then LPS (200 ng/mL) 24 h) | NO production inhibiting effect (BV-2 microglial cells [1]; low concentration of less than 10 μM) | cellular viability (BV-2 microglial cells [2]; 1, 2, 4 and 8 μM, pretreated 1 h, then LPS (200 ng/mL) 24 h, MTT, compared to control cells) | cytotoxicity (BV-2 microglial cells [2]; low concentration of less than 10 μM, BV-2 microglial cells (FIG. 12)) |
| --- | --- | --- | --- | --- | --- |
| C/C=C/C=C/CC[C@]12OCC[C@@H]3OC[C@](O)(CO1)[C@@H]32 [Compound 1, (2aS,2a^1R,4aS,7aS)-7a-((3E,5E)-hepta-3,5-diene-1-yl)tetrahydro-2H,6H,1,4,7-trioxacyclopenta[cd]indene-2a(3H)-ol] | about 22% |  |  |  |  |
| C/C=C/C=C/C=C/[C@]12OCC[C@@H]3OC[C@](O)(CO1)[C@@H]32 [Compound 2, (2aS,2a^1R,4aS,7aS)-7a-((1E,3E,5E)-hepta-1,3,5-triene-1-yl)tetrahydro-2H, 6H,1,4,7-trioxacyclopenta[cd]indene-2a(3H)-ol] | about 25% |  |  |  |  |
| C/C=C/C=C/CC[C@]12OCC[C@@H]3OC[C@](OC(=O)c4ccccc4N)(CO1)[C@@H]32 [Compound 3, (2aS,2a^1R,4aS,7aS)-7a-((3E,5E)-hepta-3,5-diene-1-yl)tetrahydro-2H,6H,1,4,7-trioxacyclopenta[cd]indene-2a(3H)-yl-2-aminobenzoate] | about 50% |  |  |  |  |
| C/C=C/C=C/C=C/[C@]12OCC[C@@H]3OC[C@](OC(=O)c4ccccc4N)(CO1)[C@@H]32 [Compound 4, (2aS,2a^1R,4aS,7aS)-7a-((1E, 3E,5E)-hepta-1,3,5-triene-1-yl)tetrahydro-2H, 6H,1,4,7-trioxacyclopenta[cd]indene-2a(3H)-yl-2-aminobenzoate] |  | about 93% | strong NO production inhibiting effect | less than 80% | cytotoxicity |
